Data reported in patent US9187458B2, “Cyanoquinoline derivatives” (Tianjin Hemay Bio-Tech Co., LTD., priority 2010, dated 2015).

What was measured:
NCI-H460 cells = assay: NCI-H460 Cell Growth Inhibition Test (MTT Assay); type: cell-based; conditions: Homo sapiens, 72 h incubation
Protocol: NCI-H460 Cell Growth Inhibition Test (MTT Assay)
1. Cell strains: NCI-H460 (human large cell lung cancer cell strains);
(§1) 1. A plate (10 cm) of cells in logarithmic growth phase normally cultured was collected;
2. The culture solution was sucked out. The plate was washed with 5 ml of PBS 1-2 times;
(§2) 3. PBS was sucked out. 2 ml of 0.25% pancreatin was added to infiltrate the cells for 1 min;
(§3) 4. The pancreatin was sucked out. The culture plate was placed in an incubator. Digestion was carried out for about 2 min at 37° C.;
(§4) 5. 4 ml of complete culture solution was added to the culture plate to stop the digestion. The cells were carefully scoured with micropipette (1 ml) to give a uniform cell suspension. The suspension was implanted into a 96-well cell culture plate by 2500 cells/100 μl per well. The culture plate was incubated overnight under 5% CO2 at 37° C. In day 2, 100 μl of culture solution comprising a compound was added in each well, and further incubated for 72 h under 5% CO2 at 37° C.
(§5) 6. The culture solution was sucked out;
(§6) 7. 100 μl of serum-free culture solution containing 0.5 mg/ml MTT was added in each well, and incubated for 3 h;
(§7) 8. The culture solution was carefully sucked out;
(§8) 9. 100 μl of DMSO was added in each well and vibrated to dissolve;
(§9) 10. OD values were determined at 490 nM.
(§10) 1. Calculation of Relative Inhibition Ratio The inhibition ratio of a compound on cell growth=(PC−n)/(PC−NC)×100%
(§11) IC50: Concentration of a compound where inhibition ratio was 50%. IC50 values were fitted with Origin7.5.

BT-474 cells = assay: BT-474 Cell Growth Inhibition Test (SRB Assay); type: cell-based, human; conditions: 70 h incubation; for IC50 / inhibition at 1 µM: Homo sapiens; for inhibition at 1 µM: BT-474, 70 h, read-out: Growth Inhibition Ratio (%)
How it was run: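 Human breast tumour BT-474 cells (1×10^5/ml seeding, overnight) exposed to compound 70 h at 37 °C, 5% CO2; TCA-fixed, SRB-stained, dye dissolved in 10 mM Tris and OD read at 570 nm. Inhibition ratio = (PC−n)/(PC−NC)×100%; IC50 is the concentration giving 50% inhibition, from fitted curves.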

A549 cells = assay: A549 Cell Growth Inhibition Test (MTT Assay); type: cell-based; conditions: Homo sapiens, 72 h incubation
Protocol: A549 Cell Growth Inhibition Test (MTT Assay)
1. Cell strains: […] (human lung caner cell strains);
Culture medium: 90% F12K+10% FBS;
as §1
2. The culture solution was sucked out. Tthe plate was washed with 5 ml of PBS 1-2 times;
as §2, §3, §4, §5, §6, §7, §8, §9, §10, §11

A431 cells = assay: A431 Cell Growth Inhibition Test (MTT Assay); type: cell-based, human; conditions: for IC50 / inhibition at 1 µM: Homo sapiens; for IC50: A-431, 68 h incubation; for inhibition at 1 µM: A-431, 68 h, read-out: Growth Inhibition Ratio (%)
How it was run: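 Cells seeded at 2500/well in DMEM/F12 with 10% FBS, grown overnight, then exposed to compound for 68 h at 37 °C, 5% CO2. Viability by MTT (0.5 mg/ml, 4 h), DMSO-solubilised, OD 490 nm; IC50 is concentration giving 50% growth inhibition relative to controls.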

Fadu cells = assay: Fadu Cell Growth Inhibition Test (MTT Assay); type: cell-based; conditions: Homo sapiens, 72 h incubation
How it was run: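 Fadu head and neck cancer cells in EMEM + 10% FBS, 6000 cells/well, dosed next day and incubated 72 h at 37 °C, 5% CO2. MTT 0.5 mg/ml for 3 h, DMSO solubilization, OD at 490 nm; inhibition ratio from positive and negative controls, IC50 from fitted curve.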

Structure (SMILES) | IC50 (NCI-H460 cells) [nM] | IC50 (BT-474 cells) [nM] | IC50 (A549 cells) [nM] | IC50 (A431 cells) [nM] | inhibition at 1 µM (BT-474 cells; compound 1 μM) [%] | IC50 (Fadu cells) [nM] | inhibition at 1 µM (A431 cells; compound 1 μM, 68 h incubation) [%] | Growth Inhibition Ratio (%) (BT-474 cells; compound 1 μM) | Growth Inhibition Ratio (%) (A431 cells; compound 1 μM, 68 h incubation)
Cc1ccccc1COc1ccc(Nc2c(C#N)cnc3cc(OC4CCOC4)c(NC(=O)/C=C/CN(C)C)cc23)cc1Cl (centres unmarked) [Example 17, (E)-N-(4-(4-(2-METHYLBENZYLOXY)-3-CHLOROPHENYLAMINO)-3-CYANO-7-(TETRAHYDROFURAN-3-YL-OXY)QUINOLIN-6-YL)-4-(DIMETHYLAMINO)-BUT-2-ENAMIDE] | 1500 | 17 | 2400 | 194 |  |  |  |  | 
C#Cc1cccc(Nc2c(C#N)cnc3cc(OC4CCOC4)c(NC(=O)/C=C/CN(C)C)cc23)c1 (centres unmarked) [Example 5, (E)-N-(3-CYANO-4-(3-ETHYNYLPHENYLAMINO)-7-(TETRAHYDROFURAN-3-YL-OXY)QUINOLIN-6-YL)-4-(DIMETHYLAMINO)-BUT-2-ENAMIDE] | 1200 | 41 | 1300 | 24 |  |  |  | 85 | 85
N#Cc1cnc2cc(O[C@H]3CCOC3)c(NC(=O)/C=C/CN3CCOCC3)cc2c1Nc1ccc(OCc2ccccn2)c(Cl)c1 [Example 152, (S,E)-N-(4-(3-CHLORO-4-(PYRIDIN-2-YL-METHOXY)PHENYLAMINO)-3-CYANO-7-(TETRAHYDROFURAN-3-YL-OXY)QUINOLIN-6-YL)-4-(MORPHOLIN-4-YL)-BUT-2-ENAMIDE] |  | 10.4 |  | 62 | 78 | 170 |  |  | 
CN(C)C/C=C/C(=O)Nc1cc2c(Nc3ccc(OCc4ccc(Cl)cc4)c(Cl)c3)c(C#N)cnc2cc1OC1CCOC1 (centres unmarked) [Example 16, (E)-N-(4-(4-(4-CHLOROBENZYLOXY)-3-CHLOROPHENYLAMINO)-3-CYANO-7-(TETRAHYDROFURAN-3-YL-OXY)QUINOLIN-6-YL)-4-(DIMETHYLAMINO)-BUT-2-ENAMIDE] | 1100 | 35 | 3400 | 358 | 72 |  |  |  | 
C#Cc1cccc(Nc2c(C#N)cnc3cc(O[C@H]4CCOC4)c(NC(=O)/C=C/CN(C)C)cc23)c1 [Example 140, (S,E)-N-(3-CYANO-4-(3-ETHYNYLPHENYLAMINO)-7-(TETRAHYDROFURAN-3-YL-OXY)QUINOLIN-6-YL)-4-(DIMETHYLAMINO)-BUT-2-ENAMIDE] | 1100 | 33 | 1600 | 26 | 85 |  | 87 |  | 
C#Cc1cccc(Nc2c(C#N)cnc3cc(O[C@H]4CCOC4)c(NC(=O)/C=C/CN4CCOCC4)cc23)c1 [Example 145, (S,E)-N-(3-CYANO-4-(3-ETHYNYLPHENYLAMINO)-7-(TETRAHYDROFURAN-3-YL-OXY)QUINOLIN-6-YL)-4-(MORPHOLIN-4-YL)-BUT-2-ENAMIDE] |  | 654 | 6700 | 71 | 75 | 194 |  |  | 
C#Cc1cccc(Nc2c(C#N)cnc3cc(O[C@@H]4CCOC4)c(NC(=O)/C=C/CN(C)C)cc23)c1 [Example 141, (R,E)-N-(3-CYANO-4-(3-ETHYNYLPHENYLAMINO)-7-(TETRAHYDROFURAN-3-YL-OXY)QUINOLIN-6-YL)-4-(DIMETHYLAMINO)-BUT-2-ENAMIDE] | 2900 | 96 | 800 | 50 | 89 |  | 80 |  | 
C#Cc1cccc(Nc2c(C#N)cnc3cc(O[C@H]4CCOC4)c(NC(=O)/C=C/CN4CCCCC4)cc23)c1 [Example 144, (S,E)-N-(3-CYANO-4-(3-ETHYNYLPHENYLAMINO)-7-(TETRAHYDROFURAN-3-YL-OXY)QUINOLIN-6-YL)-4-(PIPERIDIN-1-YL)-BUT-2-ENAMIDE] |  | 129 | 1000 | 26 |  | 103 |  |  | 
C#Cc1cccc(Nc2c(C#N)cnc3cc(O[C@H]4CCOC4)c(NC(=O)/C=C/CNC(C)(C)C)cc23)c1 [Example 146, (S,E)-N-(3-CYANO-4-(3-ETHYNYLPHENYLAMINO)-7-(TETRAHYDROFURAN-3-YL-OXY)QUINOLIN-6-YL)-4-(TERT-BUTYLAIMINO)-BUT-2-ENAMIDE] |  | 236 | 7000 | 53 |  | 200 |  |  | 
C#Cc1cccc(Nc2c(C#N)cnc3cc(O[C@H]4CCOC4)c(NC(=O)/C=C/CN(C)Cc4ccccc4)cc23)c1 [Example 149, (S,E)-N-(3-CYANO-4-(3-ETHYNYLPHENYLAMINO)-7-(TETRAHYDROFURAN-3-YL-OXY)QUINOLIN-6-YL)-4-(N-METHYLBENZYLAMINO)-BUT-2-ENAMIDE] |  | 212 |  | 89 | 79 | 163 |  |  | 
C#Cc1cccc(Nc2c(C#N)cnc3cc(O[C@H]4CCOC4)c(NC(=O)/C=C/CN(CC)CC)cc23)c1 [Example 143, (S,E)-N-(3-CYANO-4-(3-ETHYNYLPHENYLAMINO)-7-(TETRAHYDROFURAN-3-YL-OXY)QUINOLIN-6-YL)-4-(DIETHYLAMINO)-BUT-2-ENAMIDE] |  | 149 | 1500 | 59 | 87 | 127 | 70 |  | 

The next compounds have a lower IC50 (BT-474 cells) than those just listed; values first:

IC50 (NCI-H460 cells) [nM] | IC50 (BT-474 cells) [nM] | IC50 (A549 cells) [nM] | IC50 (A431 cells) [nM] | Structure (SMILES) | inhibition at 1 µM (BT-474 cells; compound 1 μM) [%] | IC50 (Fadu cells) [nM] | inhibition at 1 µM (A431 cells; compound 1 μM, 68 h incubation) [%] | Growth Inhibition Ratio (%) (BT-474 cells; compound 1 μM) | Growth Inhibition Ratio (%) (A431 cells; compound 1 μM, 68 h incubation)
2700 | 3.6 | 900 | 81 | CN(C)C/C=C/C(=O)Nc1cc2c(Nc3ccc(OCc4ccccn4)c(Cl)c3)c(C#N)cnc2cc1OC1CCOC1 (centres unmarked) [Example 21, (E)-N-(4-(3-CHLORO-4-(PYRIDIN-2-YL-METHOXY)PHENYLAMINO)-3-CYANO-7-(TETRAHYDROFURAN-3-YL-OXY)QUINOLIN-6-YL)-4-(DIMETHYLAMINO)-BUT-2-ENAMIDE] |  |  |  |  | 
 | 3.9 | 600 | 93 | CN(C)C/C=C/C(=O)Nc1cc2c(Nc3ccc(OCc4ccccn4)c(Cl)c3)c(C#N)cnc2cc1O[C@@H]1CCOC1 [Example 139, (R,E)-N-(4-(3-CHLORO-4-(PYRIDIN-2-YL-METHOXY)PHENYLAMINO)-3-CYANO-7-(TETRAHYDROFURAN-3-YL-OXY)QUINOLIN-6-YL)-4-(DIMETHYLAMINO)-BUT-2-ENAMIDE] | 81 | 201 | 90 |  | 
 | 7.2 | 6400 | 53 | CC(C)(C)NC/C=C/C(=O)Nc1cc2c(Nc3ccc(OCc4ccccn4)c(Cl)c3)c(C#N)cnc2cc1O[C@H]1CCOC1 [Example 153, (S,E)-N-(4-(3-CHLORO-4-(PYRIDIN-2-YL-METHOXY)PHENYLAMINO)-3-CYANO-7-(TETRAHYDROFURAN-3-YL-OXY)QUINOLIN-6-YL)-4-(TERT-BUTYLAMINO)-BUT-2-ENAMIDE] |  | 231 |  |  | 
1700 | 9.9 | 2300 | 222 | CN(C)C/C=C/C(=O)Nc1cc2c(Nc3ccc(OCc4ccccc4Cl)c(Cl)c3)c(C#N)cnc2cc1OC1CCOC1 (centres unmarked) [Example 10, (E)-N-(4-(4-(2-CHLOROBENZYLOXY)-3-CHLOROPHENYLAMINO)-3-CYANO-7-(TETRAHYDROFURAN-3-YL-OXY)QUINOLIN-6-YL)-4-(DIMETHYLAMINO)-BUT-2-ENAMIDE] |  |  |  |  | 
 | 6.5 | 3700 | 61 | N#Cc1cnc2cc(O[C@H]3CCOC3)c(NC(=O)/C=C/CN3CCCCC3)cc2c1Nc1ccc(OCc2ccccn2)c(Cl)c1 [Example 151, (S,E)-N-(4-(3-CHLORO-4-(PYRIDIN-2-YL-METHOXY)PHENYLAMINO)-3-CYANO-7-(TETRAHYDROFURAN-3-YL-OXY)QUINOLIN-6-YL)-4-(PIPERIDIN-1-YL)-BUT-2-ENAMIDE] | 80 | 244 |  |  | 
 | 4.9 | 3800 | 27 | CCN(CC)C/C=C/C(=O)Nc1cc2c(Nc3ccc(OCc4ccccn4)c(Cl)c3)c(C#N)cnc2cc1O[C@H]1CCOC1 [Example 150, (S,E)-N-(4-(3-CHLORO-4-(PYRIDIN-2-YL-METHOXY)PHENYLAMINO)-3-CYANO-7-(TETRAHYDROFURAN-3-YL-OXY)QUINOLIN-6-YL)-4-(DIETHYLAMINO)-BUT-2-ENAMIDE] | 82 | 207 | 84 |  | 
